Patent publication US10111437B2, “Substituted guanidines as fungicides” (Nippon Soda Co., Ltd., priority 2015, dated 2018)

Experiments:
[1] = tested on: Apple scab fungus (Venturia inaequalis); assay: Apple scab control test (foliar spray on apple seedlings); type: in vivo; settings: 125 ppm active ingredient, sprayed on apple seedlings (variety Orin) before inoculation, vs untreated
Experimental: The dilution was sprayed to apple seedlings (variety “Orin”, 3 to 4 leaf stage) grown in clay pots. […] The control value was calculated by the following equation. [formula]

[2] = tested on: Tomato late blight fungus (Phytophthora infestans); assay: whole plant or invertebrate; type: in vivo; settings: foliar, 96 h, read-out: control value
[3] = tested on: cucumber gray mold fungus (Botrytis cinerea); assay: Cucumber gray mold control test (foliar spray on cucumber seedlings); settings: in Cucumis sativus, 96 h, read-out: control value

SMILES	pest or weed control at 125 ppm [1]	pest or weed control at 125 ppm [2]	pest or weed control at 125 ppm [3]
N=C(N)c1ccc(COCCCn2ccn(CCCOc3ccc(C(=N)N)cc3)c2=N)cc1 [compound 159]	≥ 75%	≥ 75%	≥ 75%
C/N=C(/NCCCOc1ccc(C(=N)N)cc1)N(C)CCCOc1ccc(C(=N)N)cc1 [compound 138]	≥ 75%	≥ 75%	≥ 75%
CNCCNC(=N)c1ccc(OCCCn2ccn(CCCOc3ccc(C(=N)N)cc3)c2=N)cc1 [compound 101]	≥ 75%	≥ 75%	≥ 75%
N=C(N)c1ccc(OCCCn2ccn(CCCOc3ccc(C(=N)N)cc3Cl)c2=N)c(Cl)c1 [compound 99]	≥ 75%	≥ 75%	≥ 75%
CNCCNC(=N)NCCCCCCCCNC(=N)NCCCCOc1ccc(C(=N)N)cc1 [compound 147]	≥ 75%	≥ 75%	≥ 75%
N=C(NCCCCOc1ccc(C(=N)N)cc1)NCCCc1cc2cc(C(=N)N)ccc2o1 [compound 196]	≥ 75%	≥ 75%	≥ 75%
N=C(NCCCc1ccc(C(=N)N)cc1)NCCCc1ccc(C(=N)N)cc1 [compound 65, 4-[3-[[N-[3-(4-carbamimidoylphenyl)propyl]carbamimidoyl]amino]propyl]benzamidine]	≥ 75%	–	≥ 75%
N=C(NCCCCCCCCNC1=NCCN1)NCCOc1ccc(C2=NCCCN2)cc1 [compound 294]	≥ 75%	–	–
N=C(N)NCCCCCCNC(=N)NCCCOc1ccc(C(=N)N)cc1 [compound 134]	≥ 75%	≥ 75%	≥ 75%
N=C(N)NCCCCCCCNC(=N)NCCCCCCCNC(=N)N [compound 12, 1,3-bis(7-guanidinoheptyl)guanidine]	≥ 75%	–	≥ 75%
N=C(NCCCOc1ccc(C(=N)N)cn1)NCCCOc1ccc(C(=N)N)cn1 [compound 17, 6,6′-((((iminomethylene)bis(azanediyl))bis (propane-3,1-diyl))bis(oxy))dinicotinimidamide]	≥ 75%	–	≥ 75%
N=c1n(CCCOc2ccc(C3=NCCCN3)cc2)ccn1CCCOc1ccc(C2=NCCCN2)cc1 [compound 76]	≥ 75%	≥ 75%	≥ 75%
N=C(N)NCCCCCCCCn1ccn(CCCCOc2ccc(C3=NCCCN3)cc2)c1=N [compound 210]	≥ 75%	≥ 75%	≥ 75%
Cc1cc(C(=N)N)ccc1OCCCCNC(=N)NCCCCOc1ccc(C(=N)N)cc1C [compound 84]	≥ 75%	≥ 75%	≥ 75%
N=C(N)c1csc(CCCCCn2ccn(CCCCCc3nc(C(=N)N)cs3)c2=N)n1 [compound 95]	≥ 75%	–	≥ 75%
N=C(NCC#Cc1ccc(C(=N)N)cc1)NCC#Cc1ccc(C(=N)N)cc1 [compound 155]	≥ 75%	≥ 75%	≥ 75%
N=C(N)c1ccc(OCCCN2CCN(CCCOc3ccc(C(=N)N)cc3)C2=N)cc1 [compound 2, 4-[3-[3-[3-(4-carbamimidoylphenoxy)propyl]-2-imino-imidazolidin-1-yl]propoxy]benzamidine]	≥ 75%	≥ 75%	≥ 75%
N=C(N)c1ccc(OCCCCn2c(=N)n(CCCCOc3ccc(C(=N)N)cc3)c3ccccc32)cc1 [compound 27, 4-[4-[3-[4-(4-carbamimidoylphenoxy)butyl]-2-imino-benzimidazol-1-yl]butoxy]benzamidine]	≥ 75%	≥ 75%	≥ 75%
N=C(N)NCCCCCNC(=N)NCCCOc1ccc(C(=N)N)cc1 [compound 132]	≥ 75%	≥ 75%	≥ 75%
N=C(N)c1ccc(OCCCCn2ccn(CCCCOc3ccc(C4=NCCCN4)cc3)c2=N)cc1 [compound 214]	≥ 75%	≥ 75%	≥ 75%
N=C(N)NCCCCCCCCNC(=N)NCCOc1ccc(C(=N)N)cc1 [compound 232]	≥ 75%	≥ 75%	–
N=C(N)c1ccc(OCCCCCn2ccn(CCCCCOc3ccc(C(=N)N)cc3)c2=N)cc1 [compound 88]	≥ 75%	≥ 75%	≥ 75%
N=C(N)c1ccc(OCCCCn2ccn(CCCCOc3ccc(C(=N)N)cc3)c2=N)cc1 [compound 36, 4-[4-[3-[4-(4-carbamimidoylphenoxy)butyl]-2-imino-imidazol-1-yl]butoxy]benzamidine]	≥ 75%	≥ 75%	≥ 75%

SMILES	pest or weed control at 125 ppm [1]	pest or weed control at 125 ppm [2]	pest or weed control at 125 ppm [3]
Cc1c(C)n(CCCCOc2ccc(C(=N)N)cc2)c(=N)n1CCCCOc1ccc(C(=N)N)cc1 [compound 105]	≥ 75%	≥ 75%	≥ 75%
N=C(N)c1ccc(OCCCCN2CCN(CCCCOc3ccc(C(=N)N)cc3)C2=N[N+](=O)[O-])cc1 [compound 38, 4-[4-[3-[4-(4-carbamimidoylphenoxy)butyl]-2-nitroimino-imidazolidin-1-yl]butoxy]benzamidine]	≥ 75%	–	≥ 75%
N=C(N)c1ccc(COCCCn2ccn(CCCOCc3ccc(C(=N)N)cc3)c2=N)cc1 [compound 161]	≥ 75%	–	≥ 75%
CC(C)(C)OC(=O)NC(=N)c1ccc(OCCn2ccn(CCOc3ccc(C(=N)NC(=O)OC(C)(C)C)cc3)c2=NC(=O)C(F)(F)F)cc1 [compound 73]	≥ 75%	–	–
N=C(N)c1ccc(OCCCn2ccn(CCCOc3ccc(C(=N)N)cc3)c2=N)cc1 [compound 20, 4-[3-[3-[3-(4-carbamimidoylphenoxy)propyl]-2-imino-imidazol-1-yl]propoxy]benzamidine]	–	–	≥ 75%
N=C(N)NCCCCCCCNC(=N)NCCCOc1ccc(C2=NCCCN2)cc1 [compound 190]	≥ 75%	≥ 75%	≥ 75%
N=C(N)NCCCCCCCCNC(=N)NCCCc1ccc(C2=NCCCN2)cc1 [compound 271]	≥ 75%	–	–
N=C(NCCOCc1ccc(C(=N)N)cc1)NCCOCc1ccc(C(=N)N)cc1 [compound 226]	≥ 75%	–	≥ 75%
N=C(N)NCCCCCCCCNC(=N)NCCCOCc1ccc(C2=NCCCN2)cn1 [compound 250]	≥ 75%	≥ 75%	≥ 75%
N=C(N)c1ccc(OCCCn2cc(-c3ccccc3)n(CCCOc3ccc(C(=N)N)cc3)c2=N)cc1 [compound 149]	≥ 75%	≥ 75%	≥ 75%
N=C(NCCCCCc1nc(C(=N)N)cs1)NCCCOc1ccc(C(=N)N)cc1 [compound 91]	≥ 75%	≥ 75%	≥ 75%
N=C(NCCCCCCCCNC1=NCCN1)NCCCOc1ccc(C2=NCCCN2)cc1 [compound 296]	≥ 75%	–	≥ 75%
N=C(NCCCCCCCOc1ccc(C(=N)N)cc1)NCCCCCCCOc1ccc(C(=N)N)cc1 [compound 14, 4-[7-[[N-[7-(4-carbamimidoylphenoxy)heptyl]carbamimidoyl]amino]heptoxy]benzamidine]	–	–	≥ 75%
N=C(N)c1ccc(OCCCCn2ccn(CCCCOc3ccc(C(=N)N)cn3)c2=NC(=O)C(F)(F)F)nc1 [compound 46, N-(1,3-bis(4-((5-carbamimidoylpyridin-2-yl)oxy)butyl)-1,3-dihydro-2H-imidazol-2-ylidene)-2,2,2-trifluoroacetamide]	–	–	≥ 75%
N=C(NCCCOc1ccc(C2=NCCN2)cc1)NCCCOc1ccc(C2=NCCN2)cc1 [compound 78]	≥ 75%	–	≥ 75%
N=C(NCCCOCc1ccc(C(=N)N)cc1)NCCCOCc1ccc(C(=N)N)cc1 [compound 175]	≥ 75%	–	≥ 75%
N=C(N)NCCCCCCN1CCN(CCCCCCNC(=N)N)C1=N [compound 4, 1-[6-[3-(6-guanidinohexyl)-2-imino-imidazolidin-1-yl]hexyl]guanidine]	≥ 75%	–	≥ 75%
N=C(N)c1ccc(OCCCn2ccn(CCCOc3ccc(C(=N)N)cc3Br)c2=N)c(Br)c1 [compound 54, 3-bromo-4-[3-[3-[3-(2-bromo-4-carbamimidoyl-phenoxy)propyl]-2-imino-imidazol-1-yl]propoxy]benzamidine]	–	≥ 75%	≥ 75%
N=C(N)NCCCCCCCNC(=N)NCCOc1ccc2cc(C3=NCCCN3)ccc2c1 [compound 290]	≥ 75%	≥ 75%	–
CNCCNC(=N)c1ccc(OCCCn2ccn(CCCOc3ccc(C(=N)NCCNC)cc3)c2=N)cc1 [compound 97]	≥ 75%	–	–
N=C(N)c1ccc(OCCCNC(=Nc2ccccc2)NCCCOc2ccc(C(=N)N)cc2)cc1 [compound 63, 4-[3-[[N-[3-(4-carbamimidoylphenoxy)propyl]-N′-phenyl-carbamimidoyl]amino]propoxy]benzamidine]	≥ 75%	–	≥ 75%
N=c1[nH]ccn1CCCCCCCCn1ccn(CCCOc2ccc(C3=NCCCN3)cc2)c1=N [compound 283]	≥ 75%	–	≥ 75%
